Reference: article PMC10783497 (2023)

Legend:
[1] = tested on: PS2.M (DNA, G4) GTGGGTAGGGCGGGTTGG; test: ligand fluorescence titration; details: 100 mM KCl; 10 mM Tris-HCl, pH 7.6; no CDHP
[2] = tested on: Malachite green (MG) aptamer (RNA, aptamer) GGAUCCCGACUGGCGAGAGCCAGGUAACGAAUGGAUCC; test: fluorescence spectrum; details: 100 mM KCl, 5 mM MgCl2; 10 mM HEPES, pH 7.4; 1 μM CV; also in 2 M CDHP
[3] = tested on: Malachite green (MG) aptamer (RNA, aptamer) GGAUCCCGACUGGCGAGAGCCAGGUAACGAAUGGAUCC; test: fluorescence light-up titration of MG; details: 100 mM KCl, 5 mM MgCl2; 10 mM Na-HEPES, pH 7.4; 100 nM aptamer; no CDHP
[4] = tested on: Scrambled MG aptamer (RNA, other) ACCGUUGCCGGACGAGACUGAUACGCGGAAGUCGCAAG; test: fluorescence spectrum; details: 100 nM scrambled RNA
[5] = tested on: Cortisol aptamer (DNA, aptamer) CTCTTGGGACGACGCCCGCATGTTCCATGGATAGTCTTGACTAGTCGTCCC; test: aptasensor strand-displacement fluorescence (FAM/BHQ1); details: aqueous buffer and 2 M CDHP; 3'-FAM signaling strand GTCGTCCCAAGAG hybridized; 1-10 ng/ml cortisol
[6] = tested on: ATP aptamer (DNA, aptamer) AATTCTGGGGGAGCCTTTTGTGGGTAGGGCGGGTTGGTTTTGCCCCGGAGGAGGAATT; test: structure-switching FAM/BHQ1 fluorescence quenching; details: 300 mM NaCl, 5 mM MgCl2, 20 mM Tris-HCl, pH 7.4; for binding: 2 M CDHP, AD-13 hybridized, 1 mM nucleotide tested

CCc1c(C)c2cc3nc(cc4nc(cc5c(CC)c(C)c(cc1[nH]2)n5C)C(C)=C4CCC(=O)O)C(CCC(=O)O)=C3C
Kd [1]: 520.6 nM

CN(C)c1ccc(C(=C2C=CC(=[N+](C)C)C=C2)c2ccc(N(C)C)cc2)cc1
binding [2]: no

CN(C)c1ccc(C(=C2C=CC(=[N+](C)C)C=C2)c2ccccc2)cc1
Kd [3]: 257.3 nM
binding [4]: no

C[C@]12CCC(=O)C=C1CC[C@@H]1[C@@H]2[C@@H](O)C[C@@]2(C)[C@H]1CC[C@]2(O)C(=O)CO
binding [5]: yes

Cc1ccc2c(c1)sc(-c1ccc(N(C)C)cc1)[n+]2C
Kd [1]: 1444.7 nM

Nc1ccn([C@@H]2O[C@H](COP(=O)(O)OP(=O)(O)OP(=O)(O)O)[C@@H](O)[C@H]2O)c(=O)n1
binding [6]: no

Nc1nc2c(ncn2[C@@H]2O[C@H](COP(=O)(O)OP(=O)(O)OP(=O)(O)O)[C@@H](O)[C@H]2O)c(=O)[nH]1
binding [6]: no

Nc1ncnc2c1ncn2[C@@H]1O[C@H](COP(=O)(O)OP(=O)(O)OP(=O)(O)O)[C@@H](O)[C@H]1O
EC50 ([6]; antisense DNA AD-13 displaced, no CDHP): 384000 nM

O=c1ccn([C@@H]2O[C@H](COP(=O)(O)OP(=O)(O)OP(=O)(O)O)[C@@H](O)[C@H]2O)c(=O)[nH]1
binding [6]: no
